The source of these data is patent US9993518B2, “Association of a tetrapeptide and a glyceryl ester for treating androgenic alopecia” (PIERRE FABRE DERMO-COSMETIQUE, priority 2014, dated 2018).

What all share (type): cell-based
Common to all, as to settings: human hair follicles, 6 h, Control RQ = 1, average of two donors

The subject of test [1] is KRT17 gene. Briefly: KRT17 gene expression in cultured human hair follicle bulbs, quantitative real-time PCR. The protocol: (§1) Hair follicle bulbs derived from plastic surgery waste (face lifts) from two donors were isolated by microdissection, cultured and treated for 6 hours with the active agents (acetyl tetrapeptide-3, glyceryl laurate, and the association thereof). RNA was extracted, assayed, reverse-transcribed and the expression of a panel of genes expressed in the pilosebaceous follicle was analyzed by quantitative real-time PCR.
(§2) The analysis of the results generated in this study led, for each condition applied and each gene of interest studied, to the calculation of a relative quantity (RQ). RQ corresponds to the expression level of a gene relative to its basal expression level (expression level obtained for the Control condition, the RQ of which is set to 1). Thus, the modulation of a gene's expression level is considered significant when: • the RQ is greater than or equal to 2: the gene is expressed two times more than in the Control condition • the RQ is less than or equal to 0.5: the gene is expressed two times less than in the Control condition.
(§3) The set of results presented below corresponds to the average results obtained for the two donors of the study.
Background: Quantitative PCR measures a nucleic acid by following its amplification.

For test [2], the system named is KRT81 gene. Briefly: KRT81 gene expression in cultured human hair follicle bulbs, quantitative real-time PCR. The procedure: as §1, §2, §3
The subject of test [3] is KRT27 gene. The test can be described thus: KRT27 gene expression in cultured human hair follicle bulbs, quantitative real-time PCR. The procedure:
as §1, §2, §3

Test [4] has as its system KRT25 gene. Briefly: KRT25 gene expression in cultured human hair follicle bulbs, quantitative real-time PCR. The procedure:
as §1, §2, §3

Test [5] deals with SFRP1 gene. Briefly: SFRP1 gene expression in cultured human hair follicle bulbs, quantitative real-time PCR. The procedure:
as §1, §2, §3

Test [6] has as its system FZD1 gene. Briefly: FZD1 gene expression in cultured human hair follicle bulbs, quantitative real-time PCR. The protocol:
as §1, §2, §3

As to `CCCCCCCCCCCC(=O)OCC(O)CO` (stereo not drawn) [GL, glyceryl laurate], in test [1] (10 μM), the “RQ (relative quantity), expression level of the KRT17 gene” value was 1.1. Also, in test [2] (10 μM), the “RQ (relative quantity), expression level of the KRT81 gene” value was found to be 1.8. Also, the “RQ (relative quantity), expression level of the KRT27 gene” value in test [3] (10 μM) is 1.3. The “RQ (relative quantity), expression level of the KRT25 gene” value in test [4] (10 μM) was 1.3. The “RQ (relative quantity), expression level of the SFRP1 gene” value in test [5] (10 μM) is 0.9. For the same compound, the “RQ (relative quantity), expression level of the FZD1 gene” value in test [6] (10 μM) is recorded as 1.3.

For “acetyl tetrapeptide-3 (Ac-KGHK-NH2) [ATP-3, CAS number 827306-88-7]”, the “RQ (relative quantity), expression level of the KRT17 gene” value in test [1] (20 μM) amounted to 0.8. Besides, the “RQ (relative quantity), expression level of the KRT81 gene” value in test [2] (20 μM) amounted to 1.5. In addition, in test [3] (20 μM), the “RQ (relative quantity), expression level of the KRT27 gene” value turned out to be 1.4. Besides, in test [4] (20 μM), the “RQ (relative quantity), expression level of the KRT25 gene” value is 1.7. In addition, in test [5] (20 μM), the “RQ (relative quantity), expression level of the SFRP1 gene” value is listed as 1.3. The “RQ (relative quantity), expression level of the FZD1 gene” value in test [6] (20 μM) came out at 1.2.
